Results on seven compounds are retold here after US20150273086A1, “HYPERPOLARIZED 2-OXOGLUTARATE AS METABOLIC AGENT IN MR” (BRACCO IMAGING S.P.A., priority 2012, published 2015).

The test system of data set [1] is PC-3, HEP-G2, PNT-1A and THLE-3 cells. Description: UV assay of uptake and conversion of 2-oxoglutarate to glutamate in cancerous and normal cells. The format is cell-based, human. The settings on record: 20 mM 2-oxoglutarate, 20 mM aspartate as co-substrate, 30 minutes at 37° C., FIG. 2. How it is done:
A combination of cellular uptake of 2-oxoglutarate and conversion of 2-oxoglutarate to glutamate was measured using a UV assay. Following incubation of the cells with 2-oxoglutarate for 30 minutes at 37° C. the cells were disrupted and a perchloric acid extract was made to precipitate the enzymes, whereafter the concentration of the formed product, glutamate, was measured.
The following UV assay for measuring glutamate production was applied.
The assay consists of two parts, as shown in the reaction scheme below. In the first part, glutamate is generated by incubating 0.5 million (0.5*10^6) viable cells with 20 mM 2-oxoglutarate and 20 mM aspartate for 30 minutes at 37° C. In the second part the glutamate concentration is measured using commercially available GDH (glutamate dehydrogenase) enzyme to generate 2-oxoglutarate and NADH. The latter is an unfavorable reaction and the reaction is therefore forced in this direction by trapping of the produced NADH in the INT (Iodonitrotetrazolium) reaction.
Reaction scheme for the assay determining glutamate concentration from cells incubated with 2-oxoglutarate. GDHcell refer to the cellular presence of glutamate dehydrogenase which will convert 2-oxoglutarate to glutamate when 2-oxoglutarate is incubated with whole cells in the first part of the assay. […]

The subject of data set [2] is aspartate transaminase. Description: Aspartate transaminase conversion of hyperpolarized 1-13C-2-oxoglutarate to 1-13C-glutamate with or without co-substrate.
Description: The sample was dissolved in 5 ml phosphate buffer (40 mM, pH 7.3) with addition of NaOH (8 μl, 12 M). The pH after dissolution was 7.3. From this hyperpolarized solution aliquots of 300 μl were taken and added one at a time to 5 mm NMR tubes (1-3) kept at 37° C. containing the following:
Tube 1: 2.5 μl (3.2 U) aspartate transaminase+100 μl (120 mM) glutamate+200 μl 40 mM phosphate buffer pH.7.3.
Tube 2: 2.5 μl (3.2 U) aspartate transaminase+100 μl (120 mM) aspartate+200 μl 40 mM phosphate buffer pH.7.3.
Tube 3: 2.5 μl (3.2 U) aspartate transaminase+300 μl (40 mM) phosphate buffer pH.7.3.
A low pulse angle experiment was performed (15 degree pulses every 0.5 s for 12 s). Following the end of the experiment the procedure was repeated for tube 2 and tube 3.
Data set [3] in a line: Hydrolysis of hyperpolarized 2-oxoglutaric-(1)-ethyl ester upon dissolution (13C-NMR). The settings on record: after 15 s; dissolved in D2O with added NaOH, pH 11. It counts as physicochemical. How it is done: 2-oxoglutaric-(1)-ethyl ester (31 mg, 0.18 mmol) was added to an Eppendorf tube and mixed with 0.7 mg (0.45 μmol) of the carboxylic acid form of the finland radical (tris{8-carboxyl-2,2,6,6-tetramethyl-benzo(1,2-d:4,5-dS)bis(1,3)dithiole-4-yl}methyl, carboxylic acid form). […]. The ethyl ester formed a glass upon rapid freezing. […] […]. The sample was hyperpolarized for 90 min.
The sample was dissolved in 6 ml D2O with added NaOH (35 μl of 10 M). […] The ester was hydrolyzed up to at least 95%, after 15 s. The 2-oxoglutaric-(1)-ethyl ester was easily hydrolyzed to 2-oxoglutarate during the time of the experiment.

For data set [4], the system named is Morris7777 cells. Description: Trypan blue staining, total cell number and viability of treated Morris7777 cells. The format is cell-based, rat. Conditions: Etoposide 15 μM 24 hours, Sorafenib 0.5 μM 48 hours. The procedure:
(§1) Morris7777 cells: Etoposide 15 μM, for 24 hours; Sorafenib 0.5 μM for 48 hours.
(§2) The treatment protocols were evaluated with a standard cellular method, trypan blue staining which provide the total cell numbers and cell viability.

Experiment in data set [5]: as above
It counts as cell-based, rat. The settings on record: rat, Etoposide 15 μM 24 hours, Sorafenib 0.5 μM 48 hours. How it is done: as §1, §2

The test system of data set [6] is Morris7777 cells. Description: UV assay of 2-oxoglutarate conversion in treated Morris7777 cells. It counts as cell-based, rat. Conditions: Etoposide 15 μM 24 hours, Sorafenib 0.5 μM 48 hours, FIG. 10. How it is done: (§3) The UV assay and conditions used in example 4 were applied. Prior to harvesting the cells have been treated with MS-275, resveratrol, etoposide, or Sorafenib, as follows:
as §1
(§4) Uptake and conversion of 2-oxoglutarate were measured as described in example 4.

Data set [7] has as its system PC-3 cells. Description: Trypan blue staining, total cell number and viability of treated PC-3 cells. It counts as cell-based, human. Conditions: MS-275 0.5 μM 48 hours, Resveratrol 50 μM 48 hours. How it is done: (§5) PC-3 cells: MS-275 0.5 μM, for 48 hours; Resveratrol 50 μM for 48 hours. The treatment protocols were evaluated with a standard cellular method, trypan blue staining which provide the total cell numbers and cell viability.

Data set [8] relates to PC-3 cells. Description: UV assay of 2-oxoglutarate conversion in treated PC-3 cells. It counts as cell-based, human. Conditions: MS-275 0.5 μM 48 hours, Resveratrol 50 μM 48 hours, FIG. 9. How it is done: as §3
PC-3 cells: MS-275 0.5 μM, for 48 hours; Resveratrol 50 μM for 48 hours.
as §4

A short description of data set [9]: Trypan blue staining, total cell number and viability of treated PC-3 cells. The settings on record: human, MS-275 0.5 μM 48 hours, Resveratrol 50 μM 48 hours. The format is cell-based, human. How it is done: as §5
In data set [10] the test system is EL-4 xenograft mouse lymphoma model. The data set can be described thus: In vivo DNP-MR glutamate signal pre versus post etoposide treatment. The arrangement: species or system C57BL/6 mouse. The settings on record: single dose Etoposide 2 mg/mouse i.p.; average over 4 mice, FIG. 8. How it is done:
EL-4 xenograft mouse lymphoma model has been selected as test system to verify the ability of detecting tumour response to a DNA targeting therapy. […].
Five million EL-4 cells were suspended in 0.1 mL Roswell Park Memorial Institute (RPMI-1640) medium and subcutaneously injected in the flank of 7 weeks old female C57BL/6 mouse.
DNP experiment has been performed 9-10 days after cells inoculation pre Etoposide treatment and 10-11 days after cells inoculation post single dose Etoposide treatment (a dose of 2 mg/mouse has been i.p. administered by injection of 300 μL of Eposin 20 mg/mL diluted 1:3 in saline solution). DNP sample has been prepared as describes in example 6.

For data set [11], the system named is liver cancer cells (Morris7777). Conditions: 3.5 mM total substrate, aspartate added, FIG. 13. How it is done:
10 million liver cancer cells (Morris7777), were harvested and redissolved in 500 μl phosphate buffer (PBS).
The acquisition was started just before injection of the hyperpolarized substrates.

For data set [12], the system named is prostate cancer cells (PC-3). The settings on record: 3.5 mM substrate, aspartate added, 14.1 T, 37° C., FIG. 3. How it is done: 10 million prostate cancer cells (PC-3) were harvested and redissolved in 500 μl phosphate buffer (PBS).
The acquisition was started just before injection of the hyperpolarized substrate.

One may read the viability as a per cent measure of how many cells are alive, often set against a control.

Consider `O=C(O)CCC(=O)C(=O)O` [2-oxoglutarate], for which the “conversion of 2-oxoglutarate in glutamate” value in [1] is listed as “higher in carcinoma cells than in normal cells”. Further, the “formation of glutamate product by aspartate transaminase” value in [2] (no co-substrate (tube 3)) is “no product can be formed”. Further, the “conversion to glutamate by aspartate transaminase, aspartate versus glutamate as co-substrate” value in [2] (tubes 1 and 2, 37° C., FIG. 1) is recorded as “the two amino acids are almost equally effective”.

As for `CCOC(=O)C(=O)CCC(=O)O` [2-oxoglutaric-(1)-ethyl ester], the “ester hydrolyzed to 2-oxoglutarate” value in data set [3] was “at least 95%”.

In turn, `CNC(=O)c1cc(Oc2ccc(NC(=O)Nc3ccc(Cl)c(C(F)(F)F)c3)cc2)ccn1` [Sorafenib, sorafenib] gave a Cell number in data set [4] of 8 million. For the same compound, the viability in data set [5] was > 89%. The “conversion of 2-oxoglutarate to glutamate in comparison to untreated cells (control)” value (“conversion of 2-oxoglutarate … (control)” below) in [6] is “no change”.

As for `Nc1ccccc1NC(=O)c1ccc(CNC(=O)OCc2cccnc2)cc1` [MS-275], in [7], the Cell number came out at 4.5 million. Further, in data set [8], the “conversion of 2-oxoglutarate … (control)” value is on record as “no change”.

On to `Oc1ccc(C=Cc2cc(O)cc(O)c2)cc1` [Resveratrol], for which the Cell number in data set [7] was found to be 1.7 million. In data set [9], the viability at 48 h is > 94%. Further, in [8], the “conversion of 2-oxoglutarate … (control)” value is on record as “higher”.

For `COc1cc([C@@H]2c3cc4c(cc3[C@@H](O[C@@H]3O[C@@H]5CO[C@@H](C)O[C@H]5[C@H](O)[C@H]3O)[C@H]3COC(=O)[C@H]23)OCO4)cc(OC)c1O` [Etoposide, etoposide], the Cell number in data set [4] is reported as 5.5 million. Also, the viability in [5] is < 85%. In [10], the “signal of hyperpolarized 1-13C-glutamate post therapy compared to pre therapy” value was “increases two times”. Besides, the “conversion of 2-oxoglutarate … (control)” value in data set [6] is “higher”.

For “1-^13C-2-oxoglutaric acid [hyperpolarized 1-^13C-2-oxoglutarate]”, the “produced hyperpolarized 1-13C-glutamate signal relative to 1-13C-lactate signal from hyperpolarized 1-13C-pyruvate” value in data set [11] was “more than 2 times”. Moreover, in data set [12], the “uptake and conversion into hyperpolarized 1-13C-glutamate” value was “taken up by PC-3 cells and converted into hyperpolarized 1-^13C-glutamate”.
